Measured values published in patent US20060093596A1, “Genomic approach to identification of novel broad-spectrum antimicrobial peptides from bony fish” (priority 2002, published 2006).
Entries after “also recorded” stand apart in the source; their conditions may differ. Where no end group is shown, it is not given here.

Key:
[1] = system: Salmonella enterica s. Typhimurium MS4252S (C610, supersusceptible strain); assay type: cell-based; conditions: lowest peptide concentration inhibiting growth by at least 50%; Mueller-Hinton broth
Description: (§3) Most non-fish bacterial strains as well as Candida albicans were grown at 37° C. in Mueller-Hinton Broth (MHB; Difco Laboratories, Detroit), while the fish bacteria were maintained at 16° C. in Tryptic Soy Broth (TSB; Difco, 5g/l NaCl). All strains were stored at −70° C. until they were thawed for use and sub-cultured daily. The following strains, Pseudomonas aeruginosa K799 (parent of Z61), Pseudomonas aeruginosa Z61 (antibiotic supersusceptible), Salmonella typhimurium 14028s (parent of MS7953s), Salmonella typhimurium MS7953s (defensin supersusceptible), as well as Staphylococcus epidermidis (human clinical isolates) and methicillin-resistant Staphylococcus aureus (MRSA; isolated by Dr. A. Chow, University of British Columbia) have been kindly donated by Prof R. E. W. Hancock, University of British Columbia.
(§4) The activities of the antimicrobial peptides were determined as minimal inhibitory concentrations (MICs) using the microtitre broth dilution method of Amsterdam (Amsterdam, 1996), as modified by Wu and Hancock (1999). Serial dilutions of the peptide were made in water in 96-well polypropylene (Costar, Coming Incorporated, Coming, New York) microtiter plates. Bacteria or C. albicans were grown overnight to mid-logarithmic phase as described above, and diluted to give a final inoculum size of 10^6 cfu/ml. A suspension of bacteria or yeast was added to each well of a 96 well plate and incubated overnight at the appropriate temperature. […] Three repeats of each MIC determination were performed.

[2] = system: Salmonella enterica s. Typhimurium 14028S (C587); assay type: cell-based; conditions: lowest peptide concentration inhibiting growth by at least 50%; Mueller-Hinton broth
Description: as §3, §4

[3] = system: Pseudomonas aeruginosa K799 (H187); assay type: cell-based; conditions: for Minimal inhibitory concentration, P. aeru K799: lowest peptide concentration inhibiting growth by at least 50%, Mueller-Hinton broth
Description: as §3, §4

[4] = system: Pseudomonas aeruginosa Z61 (H188, supersusceptible strain); assay type: cell-based; conditions: for Minimal inhibitory concentration, P. aeru Z61: lowest peptide concentration inhibiting growth by at least 50%, Mueller-Hinton broth
Description: as §3, §4

[5] = system: Escherichia coli C786, CGSC4908; assay type: cell-based; conditions: lowest peptide concentration inhibiting growth by at least 50%; supplemented Mueller-Hinton broth
Description: All strains were stored at −70° C. until they were thawed for use and sub-cultured daily.
Escherichia coli strain CGSC 4908 (his-67, thyA43, pyr-37), auxotrophic for thymidine, uridine, and L-histidine (Cohen et al., 1963) was kindly supplied, free of charge, by the E.coli Genetic Stock Centre (Yale University, New Haven, Conn.). MHB supplemented with 5 mg/L thymidine, 10 mg/L uridine and 20 mg/L L-histidine (Sigma Chemical Co., St. Louis, Mo.), was used to grow E.coli CGSC 4908 unless otherwise specified.
The activities of the antimicrobial peptides were determined as minimal inhibitory concentrations (MICs) using the microtitre broth dilution method of Amsterdam (Amsterdam, 1996), as modified by Wu and Hancock (1999). Serial dilutions of the peptide were made in water in 96-well polypropylene (Costar, Coming Incorporated, Coming, New York) microtiter plates. Bacteria or C. albicans were grown overnight to mid-logarithmic phase as described above, and diluted to give a final inoculum size of 10^6 cfu/ml. A suspension of bacteria or yeast was added to each well of a 96 well plate and incubated overnight at the appropriate temperature. In the case of E. coli CGSC 4908, supplemented MHB was used. […] Three repeats of each MIC determination were performed.

[6] = system: Escherichia coli UB1005 (C498); assay type: cell-based; conditions: lowest peptide concentration inhibiting growth by at least 50%; Mueller-Hinton broth
Description: as §3, §4

[7] = system: Escherichia coli DC2 (C500, outer membrane-permeable mutant); assay type: cell-based; conditions: lowest peptide concentration inhibiting growth by at least 50%; Mueller-Hinton broth
Description: as §3, §4

[8] = system: methicillin-resistant Staphylococcus aureus (MRSA); assay: Killing assay (survival at MIC and ten times MIC); assay type: cell-based; conditions: Mueller-Hinton broth, FIG. 13
Description: (§1) Survival of bacteria and C. albicans upon exposure to selected peptides applied at their minimal inhibitory concentrations (MICs) and ten times their MICs was measured using standard methodology. The test organisms were grown in MHB and exposed to the peptides. At the specified time intervals equal aliquots were removed from the cultures, plated on MHB plates, and the resulting colonies were counted. Percentage survival was plotted against time on a logarithmic scale. Two repeats of each experiment were performed.
(§2) FIG. 13 describes Survival of a Gram-positive bacterium (methicillin-resistant Staphylococcus aureus—MRSA) upon exposure to NRC-15 at its minimal inhibitory concentration (MIC) and ten times its MIC. S. aureus was grown in Mueller-Hinton broth and exposed to NRC-15 at its MIC and ten times its MIC. At the specified intervals equal aliquots were removed from the culture, plated on MHB plates, and the resulting colonies were counted.

[9] = system: bacterial pathogens and C. albicans; assay: Spectrum of antimicrobial activity (MIC panel, overall); assay type: cell-based; conditions: summary of MIC results against bacteria and C. albicans
Description: Three repeats of each MIC determination were performed.
The minimal inhibitory concentrations of the chemically produced peptides against a wide range of baterial pathogens and C. albicans were determined and are shown in Table 9.

[10] = system: Aeromonas salmonicida 99-1, A449
Description: (§5) Most non-fish bacterial strains as well as Candida albicans were grown at 37° C. in Mueller-Hinton Broth (MHB; Difco Laboratories, Detroit), while the fish bacteria were maintained at 16° C. in Tryptic Soy Broth (TSB; Difco, 5g/l NaCl).
(§6) Two field isolates of the salmonid pathogen Aeromonas salmonicida are from the IMB strain collection.
as §4

[11] = system: Aeromonas salmonicida 97-4
Description: as §5, §6, §4

[12] = system: Staphylococcus epidermidis C621 (clinical isolate)
Description: as §3, §4

[13] = system: methicillin-resistant Staphylococcus aureus (MRSA) C623, SAP017; conditions: for Minimal inhibitory concentration, MRSA C623: methicillin-resistant C623, SAP017
Description: as §3, §4

[14] = system: Candida albicans C627, CALB105; conditions: for Minimal inhibitory concentration, C. alb C627: C627, CALB105
Description: as §3, §4

Candida albicans = assay: Killing assay (survival at MIC and ten times MIC); assay type: cell-based; conditions: Mueller-Hinton broth, FIG. 15
Description: as §1
as §2, with “15” for “13”, “yeast (Candida albicans)” for “Gram-positive bacterium (methicillin-resistant Staphylococcus aureus—MRSA)”, “NRC-12” for “NRC-15”, “C. albicans” for “S. aureus”

Pseudomonas aeruginosa = assay: Killing assay (survival at MIC and ten times MIC); assay type: cell-based
Description: as §1
as §2, with “14” for “13”, “Gram-negative” for “Gram-positive”, “(Pseudomonas aeruginosa)” for “(methicillin-resistant Staphylococcus aureus—MRSA)”, “NRC-13” for “NRC-15”, “P. aeruginosa” for “S. aureus”

P. aeruginosa K799 = assay: Killing assay in culture supplemented with NaCl; assay type: cell-based, Pseudomonas aeruginosa; conditions: culture supplemented with 150 mM NaCl; 4 μg/ml (MIC) or 40 μg/ml (10×MIC); FIG. 25
Description: as §1
Peptides of the invention can be used at a range of pH's, salt concentrations, and temperatures. These peptides are useful against pathogens grown in biofilms or under any other conditions for pathogen growth or culture. See for example FIG. 25 in which the ability of NRC-13 to kill P. aeruginosa K799 in […] is shown. NRC-13 was added to a culture of P. aeruginosa supplemented with 150 mM NaCl to a final concentration of 4 μg/ml (□) or 40 μg/ml (Δ), representing the MIC and 10×MIC, respectively. A control with no peptide added is also shown (♦).

Vibrio anguillarum = conditions: Coho salmon; Jia et al. 2000; cited from earlier work

GFWGKLFKLGLHGIGLLHLHL-NH2 [NRC-15]
Minimal inhibitory concentration, S. typh MS4252s [1]: 4 µg/mL | Minimal inhibitory concentration, S. typh 14028s [2]: 16 µg/mL | Minimal inhibitory concentration, P. aeru K799 [3]: 8 µg/mL | Minimal inhibitory concentration, P. aeru Z61 [4]: 4 µg/mL | Minimal inhibitory concentration, E. coli C786 [5]: 8 µg/mL | Minimal inhibitory concentration, E. coli UB1005 [6]: 8 µg/mL | Minimal inhibitory concentration, E. coli DC2 [7]: 8 µg/mL | ability to kill methicillin-resistant S. aureus [8]: ability to kill | antimicrobial activity, overall (in words) [9]: broad spectrum of antimicrobial activity | Minimal inhibitory concentration, A. sal 99-1 [10]: 8 µg/mL | Minimal inhibitory concentration, A. sal 97-4 [11]: 16 µg/mL | Minimal inhibitory concentration, S. epi C621 [12]: 4 µg/mL | concentration inhibiting the growth of methicillin-resistant S. aureus [13]: 4 µg/mL | Minimal inhibitory concentration, MRSA C623 [13]: 4 µg/mL | Minimal inhibitory concentration, C. alb C627 [14]: 16 µg/mL

GWKKWFNRAKKVGKTVGGLAVDHYL-NH2 [NRC-12]
Minimal inhibitory concentration, S. typh MS4252s [1]: 2 µg/mL | Minimal inhibitory concentration, S. typh 14028s [2]: 8 µg/mL | Minimal inhibitory concentration, P. aeru K799 [3]: 4 µg/mL | Minimal inhibitory concentration, P. aeru Z61 [4]: 1 µg/mL | Minimal inhibitory concentration, E. coli C786 [5]: 2 µg/mL | Minimal inhibitory concentration, E. coli UB1005 [6]: 8 µg/mL | Minimal inhibitory concentration, E. coli DC2 [7]: 2 µg/mL | ability to kill C. albicans (Candida albicans): ability to kill | antimicrobial activity, overall (in words) [9]: broad spectrum of antimicrobial activity | Minimal inhibitory concentration, A. sal 99-1 [10]: 2 µg/mL | Minimal inhibitory concentration, A. sal 97-4 [11]: 2 µg/mL | Minimal inhibitory concentration, S. epi C621 [12]: 8 µg/mL | Minimal inhibitory concentration, MRSA C623 [13]: 16 µg/mL | Minimal inhibitory concentration, C. alb C627 [14]: 4 µg/mL

GWRTLLKKAEVKTVGKLALKHYL-NH2 [NRC-13]
Minimal inhibitory concentration, S. typh MS4252s [1]: 2 µg/mL | Minimal inhibitory concentration, S. typh 14028s [2]: 8 µg/mL | MIC against P. aeruginosa K799 ([3]; text statement to FIG. 25): 4 µg/mL | Minimal inhibitory concentration, P. aeru Z61 [4]: 1 µg/mL | concentration inhibiting the growth of P. aeruginosa ([4]; strain not stated, value matches Z61 of Table 8): 1 µg/mL | Minimal inhibitory concentration, E. coli C786 [5]: 2 µg/mL | Minimal inhibitory concentration, E. coli UB1005 [6]: 4 µg/mL | Minimal inhibitory concentration, E. coli DC2 [7]: 2 µg/mL | ability to kill P. aeruginosa (Pseudomonas aeruginosa; at MIC and ten times MIC, Mueller-Hinton broth, FIG. 14): ability to kill | concentration killing P. aeruginosa (Pseudomonas aeruginosa; strain not stated): 1 µg/mL | ability to kill P. aeruginosa K799 in NaCl (P. aeruginosa K799): kill | antimicrobial activity, overall (in words) [9]: broad spectrum of antimicrobial activity; also recorded: highly active | Minimal inhibitory concentration, A. sal 99-1 [10]: 4 µg/mL | Minimal inhibitory concentration, A. sal 97-4 [11]: 2 µg/mL | concentration inhibiting the growth of A. salmonicida ([11]; strain not stated, value matches 97-4 of Table 8): 2 µg/mL | Minimal inhibitory concentration, S. epi C621 [12]: 4 µg/mL | concentration inhibiting the growth of methicillin-resistant S. aureus [13]: 4 µg/mL | Minimal inhibitory concentration, MRSA C623 [13]: 4 µg/mL | concentration inhibiting the growth of C. albicans [14]: 4 µg/mL | Minimal inhibitory concentration, C. alb C627 [14]: 4 µg/mL

WLRRIGKGVKIIGGAALDHL-NH2 [NRC-2]
Minimal inhibitory concentration, S. typh MS4252s [1]: 64 µg/mL | Minimal inhibitory concentration, S. typh 14028s [2]: >64 µg/mL | Minimal inhibitory concentration, P. aeru K799 [3]: 64 µg/mL | Minimal inhibitory concentration, P. aeru Z61 [4]: 32 µg/mL | Minimal inhibitory concentration, E. coli C786 [5]: 64 µg/mL | Minimal inhibitory concentration, E. coli UB1005 [6]: 64 µg/mL | Minimal inhibitory concentration, E. coli DC2 [7]: 64 µg/mL | antimicrobial activity, overall (in words) [9]: only marginally active | Minimal inhibitory concentration, A. sal 99-1 [10]: >128 µg/mL | Minimal inhibitory concentration, A. sal 97-4 [11]: 128 µg/mL | Minimal inhibitory concentration, S. epi C621 [12]: >64 µg/mL | Minimal inhibitory concentration, MRSA C623 [13]: >64 µg/mL | Minimal inhibitory concentration, C. alb C627 [14]: >64 µg/mL

pleurocidin (GWGSFFKKAAHVGKHVGKAALTHYL-NH2; UniProt P81941 23-47, looked up) [Synthetic pleurocidin, Synthetic pleurocidin identical to the central portion of WF2 (Jia et al. 2000)]
protection against infection by Vibrio anguillarum (Vibrio anguillarum): protect Coho salmon against infection
